This note sets out measurements from a melting point compilation (Tetko et al.; mined from patent text by program, amines drawn as free bases though some values may be those of a salt).

SMILES strings stand for the structures. Some results are limits rather than exact numbers.

The melting point is the temperature of the solid-liquid transition.

The molecule `COc1ccc(CNc2ccc(C(=O)Nc3cccc4cc(C(=O)Nc5cc(C(C)(C)C)cc(NS(C)(=O)=O)c5OC)sc34)cn2)cc1` registered a melting point of 137 to 139 °C. `CCCCCCCCCCCCCCCc1cccc(OCC)c1C1NC(=O)NC(C)=C1C(=O)OC` (stereo not drawn) came in with a melting point of 127 to 129 °C.

For `COc1ccc(C(=C(CCBr)c2ccccc2)c2ccccc2)cc1`, the melting point was 116 to 118 °C. `Cc1nc2c(N)nc3ccc(OCc4ccccc4)cc3c2n1CCCCCS(C)(=O)=O` gave a melting point of 215 to 217 °C. For the molecule `CCOC(=O)c1nc(C2CCCCC2)n(-c2cccc(Cl)c2F)c1Br`, the melting point is 150 to 152 °C. `Nc1nc(Nc2ccccc2)c2ncn(C3CC(F)C(CO)O3)c2n1` (stereo not drawn) had a melting point of 193 to 194 °C. In the case of `O=C(O)CC(NC(=O)C1CCCN2C(=O)CCC(NC(=O)c3ccccc3)C(=O)N12)C(=O)COC(=O)c1c(Cl)cccc1Cl` (stereo not drawn) it was 126 to 130 °C; in that of `CON(c1ccc(SC)cc1[N+](=O)[O-])S(=O)(=O)c1ccc(C)cc1`, 110 to 111 °C. As to `O=C(OCn1cc(F)c(=O)n(COC(=O)c2ccccc2)c1=O)c1ccccc1`, the melting point lay within 178 to 180 °C. Molecule `COc1ccc(C(=C2CCN(CCc3c(C)nc4scc(C)n4c3=O)CC2)c2ccc(F)cc2)cc1` returned a melting point of 140 °C. In the case of `CC(C)(CF)C(O)C(c1ccc(Cl)cc1Cl)n1cncn1` (stereo not drawn) it was 98 to 100 °C; in that of `c1ccc2c(Sc3cccc4ccccc34)cccc2c1`, 108 to 110 °C.

In turn, `Nc1cccc(Cn2c(-c3ccc(O)cc3)ccc2-c2ccccc2Cl)n1` registered a melting point of 170 to 172 °C. As to `COc1ccc(CN(Cc2ccc(OC)cc2)c2nc(Cl)c3ncn(Cc4ccc(OC)cc4)c3n2)cc1`, the melting point lay within 157 to 159 °C. Consider `Cc1ccccc1C(=O)Nc1ccc(C(=O)N2Cc3cccn3Cc3ccccc32)cc1`, for which the melting point lay in the range of 212 to 215 °C. In the case of `COc1ccc(OC(=O)c2c3ccccc3nc3ccccc23)cc1`, the melting point was in the range of 202 to 203 °C. Then `O=C(Cc1ccc(Cl)cc1)c1ccc(Cl)cc1Cl`, with 65 to 66 °C. In the case of `O=C1CCC(CCc2ccc(-c3ccccc3)cc2)N1O` (stereo not drawn) it was 192 to 194 °C; in that of `N#CCSc1cc(F)cc(F)c1N`, 66 to 67 °C.

In turn, `CC(COc1ccc(O)c(C(N)=O)c1)NCc1ccccc1` (stereo not drawn) registered a melting point of 102 to 104 °C. In the case of `N#Cc1ccc(-c2ccc3cnc(Nc4ccc(N5CCOCC5)cc4)nn23)cn1` it was 280 to 283 °C; in that of `CCCSc1ncc(C(=O)N[C@@H](Cc2c[nH]cn2)C(=O)O)n1Cc1ccccc1Cl`, 130 to 132 °C; in that of `CC(=O)Nc1ccc2c(c1)NC(=O)C(CCCN1CCN(c3ccc(F)cc3)CC1)O2` (stereo not drawn), 111 to 112 °C. As for `Oc1cc2cc3c(ccc4cc(O)c(O)cc43)nc2cc1O`, the melting point was over 270 °C. Take `CCOc1n[nH]cc1C(=O)NCc1ccc(Cl)cc1Cl`: the melting point was 197 to 198 °C. In the case of `COc1cc(-c2nc(C)nn2C)cc2oc(=O)c(C)c(C)c12` it was 180 °C; in that of `O=C(O)c1nc2cc(Oc3cccc([N+](=O)[O-])c3)c([N+](=O)[O-])cc2[nH]c1=O`, 198 to 200 °C; in that of `CC(O)(C(=O)Nc1ccc(C(=O)c2ccccc2)cc1F)C(F)(F)F` (stereo not drawn), 138 to 139 °C. Turning to `O=C(Nc1ccccc1)OC1CCN(C(=O)c2ccc(F)cc2)C1` (stereo not drawn), the melting point was in the range of 173 to 175 °C. In the case of `COc1ccc2c(CC3=C(CC(=O)O)CCCC3=O)cccc2c1C(F)(F)F` it was 69 to 71 °C; in that of `COCCN1C(=O)C(C)(C)C(=O)Nc2cc(CN(CCn3cc(C)c4occc4c3=O)Cc3cccnc3C)ccc21`, 205 to 206 °C. As to `CCCCCCCCCCCCCCCCNc1ccc(C(=O)N(C)C)cc1`, the melting point was 70 to 72 °C. For the molecule `Clc1cc(OC(Cl)(Cl)Cl)nc(Cl)n1`, the melting point fell in the range of 55 to 56 °C.
